From paper PMC8949187, “Study of Structure–Activity Relationships of the Marine Alkaloid Fascaplysin and Its Derivatives as Potent Anticancer Agents” (Marine Drugs, 2022)

What was measured:
PC-3 cells = assay: MTT assay, PC-3 cells; type: cell-based, human; conditions: prostate cancer cells, 48 h of treatment, mean ± SD
Description: (§1) The human prostate cancer cell lines PC-3, DU145, 22Rv1 and LNCaP, as well as human prostate non-cancer cell line PNT2 were purchased from ATCC (Manassas, VA, USA). HEK 293T (human embryonic kidney cells) and MRC-9 (human fibroblast cells) cell lines were purchased from ECACC (Salisbury, UK). […] Authentication of all cell lines used was recently performed by a commercial service (Multiplexion GmbH, Heidelberg, Germany).
(§2) Cells were cultured as monolayers at 37 °C in a humidified atmosphere with 5% (v/v) CO2 in the correspondent culture medium: 10% FBS/RPMI medium (RPMI medium supplemented with Glutamax^TM-I (gibco® Life technologies^TM, Paisley, UK) containing 10% fetal bovine serum (FBS, gibco® Life technologies^TM) and 1% penicillin/streptomycin (Invitrogen)) for PNT2, LNCaP, 22Rv1, PC-3 and DU145 and cells; 10% FBS/DMEM medium (DMEM medium supplemented with Glutamax^TM-I (gibco® Life technologies^TM) containing 10% FBS and 1% penicillin/streptomycin (gibco® Life technologies^TM)) for MRC-9 and HEK 293 cells. Cells were continuously kept in culture for a maximum of 3 months, and were regularly checked for stable phenotype and mycoplasma infection.
(§3) Effect of the drugs on cell viability in terms of metabolic activity was assessed by MTT assay, as previously reported. Cells were pre-incubated overnight in 96-well plates (6 × 10^3 cells/well in 100 μL/well) in the correspondent culture media. Then, the medium was replaced with fresh 10% FBS/RPMI medium containing the investigated compounds (100 μL/well), and cells were incubated for 48 h, unless otherwise stated. Next, 10 μL/well of (3-(4,5-dimethylthiazol-2-yl)-2,5-diphenyltetrazolium bromide) reagent (MTT, 5 mg/mL) was added. After 2–4 h of incubation, the media was aspirated and the plates were dried. Then, 50 μL/well of DMSO was added to each well and the cell viability was measured using an Infinite F200PRO reader (TECAN, Männedorf, Switzerland). Results were calculated using the GraphPad Prism software v.9.1.1 (GraphPad Software, San Diego, CA, USA) and are represented as IC50 of the compounds calculated using the cells treated with the solvent alone as a control.

22Rv1 cells [1] = assay: MTT assay, 22Rv1 cells; type: cell-based, human; conditions: prostate cancer cells, 48 h of treatment, mean ± SD
Description: as §1, §2, §3

DU145 cells = assay: MTT assay, DU145 cells; type: cell-based, human; conditions: prostate cancer cells, 48 h of treatment, mean ± SD
Description: as §1, §2, §3

LNCaP cells = assay: MTT assay, LNCaP cells; type: cell-based, human; conditions: prostate cancer cells, 48 h of treatment, mean ± SD
Description: as §1, §2, §3

PNT2 cells = assay: MTT assay, PNT2 cells; type: cell-based, human; conditions: non-cancer cells, 48 h of treatment, mean ± SD
Description: as §1, §2, §3

MRC-9 cells = assay: MTT assay, MRC-9 cells; type: cell-based, human; conditions: non-cancer cells, 48 h of treatment, mean ± SD
Description: as §1, §2, §3

HEK-293 cells = assay: MTT assay, HEK-293 cells; type: cell-based, human; conditions: non-cancer cells, 48 h of treatment, mean ± SD
Description: as §1, §2, §3

22Rv1 cells [2] = assay: Trypan blue-based viability assay; type: cell-based, human; conditions: 48 h of treatment, mean ± SD, read-out: IC50, trypan blue staining assay
Description: The effect of the drugs on cell viability in terms of cellular membrane integrity was evaluated by the trypan blue exclusion assay as described before. In brief, cells (0.2 × 10^6 cells/well) were seeded in 6-well plates and incubated overnight, and the media was replaced with fresh media (1 mL/well) containing drugs at indicated concentrations. After treatment for 48 h, the cells were harvested by trypsinization, stained with trypan blue and the viability was measured using an automatic Beckman Coulter Vi-CELL (Beckman Coulter, Krefeld, Germany). Trypan blue-positive cells were assumed to have damaged cellular membrane (i.e., dead), whereas trypan blue-negative cells were considered to have an intact cellular membrane (i.e., alive).

22Rv1 cells [3] = assay: DNA fragmentation (apoptosis, sub-G1), flow cytometry with PI staining; type: cell-based, human; conditions: treated at IC50 (MTT assay) for 48 h, mean ± SD
Description: The effects on cell cycle progression and DNA fragmentation were analyzed by flow cytometry using PI staining, as described before. Cells (2 × 10^5 cells/well) were pre-incubated overnight in 6-well plates and then treated with the investigated drugs in fresh culture media (2 mL/well) for 48 h. Cells were harvested by trypsinization, fixed in 70% EtOH, stained with PI solution and analyzed by FACS Calibur (BD Bioscience, San Jose, CA, USA). The results were quantified using BD Bioscience Cell Quest Pro v.5.2.1. software (BD Bioscience). The cells appearing as a sub-G1 population (containing fragmented DNA) were considered to be apoptotic.

[4] = tested on: double-stranded calf thymus DNA; assay: Thiazole orange displacement (DNA intercalation) assay; type: binding; conditions: 1 µM calf thymus DNA base pairs, 2 µM thiazole orange; 7 min at room temperature; mean ± SD
Description: DNA intercalation activity of the compounds was calculated as an ability to displace thiazole orange (TO) from the double-stranded DNA. For this experiment, a mixture (100 µL) containing 1 µM of double-stranded calf thymus DNA (recalculated as a concentration of base pairs) and 2 µM of thiazole orange (TO) solved in water was prepared. Then, the investigated compounds were added up to final concentrations of 0.39–25 µM; DMSO concentration in the samples was <0.02%. Propidium iodide (PI, positive control) was added up to final concentrations of 0.039–2.5 uM. After 7 min of incubation at room temperature, TO fluorescence was monitored using a multimodal plate reader TECAN Spark (Tecan Group Ltd., Männedorf Switzerland) at the excitation λ = 480 nm; fluorescence was recorded at λ = 530 nm. The bandwidth was 10 nm. The concentration of the drug that caused a decrease in TO fluorescence by 50% (EC50) was determined by approximating the experimental data using a non-linear regression algorithm and calculated using the GraphPad Prism software v.9.1.1 (GraphPad Software, San Diego, CA, USA).

[5] = tested on: prostate cancer cell lines (PC-3, 22Rv1, DU145 and LNCaP); assay: MTT assay, mean over four prostate cancer cell lines; type: cell-based; conditions: Homo sapiens; mean of MTT IC50 in PC-3, 22Rv1, DU145 and LNCaP; from Table S1 values; read-out: mean IC50 in cancer cells
Description: as §3, with “Next, SAR analysis was performed to identify the structural elements that are beneficial for anticancer activity of the fascaplysin-related molecules. Considering the complex and heterogeneous nature of tumors even within the same patient, we used calculated mean IC50 values of each drug in all prostate cancer cells for further analysis (Figure 2A). To identify the drug candidates with the highest therapeutic potential, the selectivity index (SI) was calculated as mean IC50 in non-cancer cells versus mean IC50 in cancer cells (Figure 2B), or as a mean IC50 in non-cancer (MRC-9 and HEK293) cells versus mean IC50 in prostate cells (cancer PC-3, 22Rv1, DU145, LNCaP and non-cancer PNT2 cells) (Figure 2C). Finally, to estimate the effects on cellular metabolism, we compared the activity evaluated by using trypan blue assay versus MTT assay (Figure 2D). Effect” for “Effect”, “2-4” for “2–4”, “F200PRO” left out

[6] = tested on: non-cancer cell lines versus cancer cell lines; assay: Selectivity index from MTT IC50s; type: cell-based, human; conditions: MTT; for Selectivity index, IC50 (non-prostate) / IC50 (prostate): mean IC50 MRC-9 and HEK-293 versus mean IC50 prostate cancer cell lines plus PNT2; for Selectivity index, IC50 (non-cancer) / IC50 (cancer): mean IC50 non-cancer cell lines versus mean IC50 cancer cell lines
Description: as §3, with “Next, SAR analysis was performed to identify the structural elements that are beneficial for anticancer activity of the fascaplysin-related molecules. Considering the complex and heterogeneous nature of tumors even within the same patient, we used calculated mean IC50 values of each drug in all prostate cancer cells for further analysis (Figure 2A). To identify the drug candidates with the highest therapeutic potential, the selectivity index (SI) was calculated as mean IC50 in non-cancer cells versus mean IC50 in cancer cells (Figure 2B), or as a mean IC50 in non-cancer (MRC-9 and HEK293) cells versus mean IC50 in prostate cells (cancer PC-3, 22Rv1, DU145, LNCaP and non-cancer PNT2 cells) (Figure 2C). Finally, to estimate the effects on cellular metabolism, we compared the activity evaluated by using trypan blue assay versus MTT assay (Figure 2D). Effect” for “Effect”, “2-4” for “2–4”, “F200PRO” left out

Row | SMILES | IC50 (PC-3 cells; Homo sapiens, PC-3) [nM] | IC50 (22Rv1 cells [1]; Homo sapiens, 22Rv1) [nM] | IC50 (DU145 cells; Homo sapiens, DU-145) [nM] | IC50 (LNCaP cells; Homo sapiens, LNCaP) [nM] | IC50 (PNT2 cells; Homo sapiens, PNT2) [nM] | IC50 (MRC-9 cells; Homo sapiens, MRC9) [nM] | IC50 (HEK-293 cells; Homo sapiens, HEK293) [nM] | IC50 (22Rv1 cells [2]; Homo sapiens) [nM] | % of sub-G1 apoptotic cells (at IC50) (22Rv1 cells [3]) [%] | IC50 [5] [nM] | Selectivity index, IC50 (non-prostate) / IC50 (prostate) [6] | Selectivity index, IC50 (non-cancer) / IC50 (cancer) [6] | further results
1 | O=C1c2ccc(Br)cc2-[n+]2ccc3c([nH]c4ccccc43)c21 [Compound 3, 3-bromofascaplysin] | 10000 ± 6750 | 417 ± 60 | 1510 ± 130 | 1250 ± 380 | 727 ± 60 | 2300 ± 870 | 1010 ± 71 | 240 ± 41 | 23.3±9.19 | 3300 | 0.59 | 0.41 | EC50 [4]: 700 ± 30 nM
2 | N.N.[Cl][Pt][Cl] [Cis, Cisplatin, reference compound] | – | – | – | – | – | – | – | – | 14.7±3.43 | – | 0.92 | 1.23 | IC50 (PC-3 cells): 34600 nM; IC50 (22Rv1 cells [1]): 990 ± 290 nM; IC50 (DU145 cells): 1320 ± 530 nM; IC50 (LNCaP cells): 2750 ± 550 nM; IC50 (PNT2 cells): 9410 ± 3120 nM; IC50 (MRC-9 cells): 6750 ± 1990 nM; IC50 (HEK-293 cells): 6440 ± 1770 nM; IC50 (22Rv1 cells [2]): 190 ± 44 nM
3 | O=C1c2ccc(Br)cc2-[n+]2ccc3c([nH]c4ccc(Br)cc43)c21.[Cl-] [Compound 15, 12,13-dihydro-3,9-dibromo-13-oxopyrido[1,2-a:3,4-b’]diindol-5-ium chloride] | 2950 ± 230 | 2240 ± 811 | 616 ± 94 | 2600 ± 367 | 643 ± 49 | 12600 ± 6940 | 275 ± 21 | 2850 ± 487 | 8.63±0.71 | 2100 | 3.56 | 2.15 | –
4 | CC[N+](C)(CC)CCC[n+]1c(-c2ccccc2)c2cc(N)ccc2c2ccc(N)cc21 [PI, propidium iodide, reference compound] | – | – | – | – | – | – | – | – | – | – | – | – | EC50 [4]: 4 ± 0.5 nM
5 | O=C1c2cc(Br)ccc2-[n+]2ccc3c([nH]c4ccc(Br)cc43)c21.[Cl-] [Compound 10, 12,13-dihydro-2,9-dibromo-13-oxopyrido[1,2-a:3,4-b’]diindol-5-ium chloride] | 1830 ± 100 | 490 ± 39 | 913 ± 116 | 1130 ± 803 | 614 ± 98 | 4960 ± 386 | 250 ± 34 | 215 ± 36 | 24.0±5.37 | 1090 | 2.62 | 1.78 | –
6 | O=C1c2cc(Br)ccc2-[n+]2ccc3c([nH]c4c(Br)cc(Br)cc43)c21.[Cl-] [Compound 13, 12,13-dihydro-2,9,11-tribromo-13-oxopyrido[1,2-a:3,4-b’]diindol-5-ium chloride] | 5940 ± 860 | 3980 ± 300 | 13200 ± 4440 | 7630 ± 740 | 4380 ± 674 | 30000 ± 5800 | 2250 ± 990 | 4480 ± 1650 | 27.6±7.52 | 7690 | 2.29 | 1.59 | –
7 | O=C1c2cc(Br)ccc2-[n+]2ccc3c([nH]c4ccc(I)cc43)c21.[Cl-] [Compound 11, 12,13-dihydro-2-bromo-9-iodo-13-oxopyrido[1,2-a:3,4-b’]diindol-5-ium chloride] | 3140 ± 980 | 2330 ± 870 | 1350 ± 318 | 1170 ± 84 | 860 ± 72 | 31900 ± 7070 | 480 ± 52 | 1330 ± 277 | 13.1±2.86 | 2000 | 9.15 | 5.55 | –
8 | Cc1c[n+]2c(c3[nH]c4ccccc4c13)C(=O)c1ccccc1-2.[Cl-] [Compound 18, 12,13-dihydro-7-methyl-13-oxopyrido[1,2-a:3,4-b’]diindol-5-ium chloride] | 1070 ± 550 | 790 ± 38 | 1790 ± 478 | 803 ± 80 | 956 ± 92 | 1180 ± 96 | 590 ± 85 | 472 ± 185 | 23.1±3.42 | 1110 | 0.82 | 0.82 | –
